Source: patent publication US9963448B2, “Bicyclic inhibitors of PAD4” (Padlock Therapeutics, Inc., priority 2015, dated 2018)
Where a name gives a salt, the structure may show the parent alone. Read-outs that look alike come from different tables or passages of the source.

Key:
hPAD4 = hPAD4 (Homo sapiens, UniProt Q9UM07); assay: hPAD4 RFMS (RapidFire mass spectrometry) PAD4 inhibition assay; assay type: biochemical; settings: hPAD4 enzyme, RFMS readout;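 as to hPAD4 RFMS pIC50: grade E means pIC50 at most 4 and F means pIC50 4.0 to 5.0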
Sequence of hPAD4 (Q9UM07 whole entry): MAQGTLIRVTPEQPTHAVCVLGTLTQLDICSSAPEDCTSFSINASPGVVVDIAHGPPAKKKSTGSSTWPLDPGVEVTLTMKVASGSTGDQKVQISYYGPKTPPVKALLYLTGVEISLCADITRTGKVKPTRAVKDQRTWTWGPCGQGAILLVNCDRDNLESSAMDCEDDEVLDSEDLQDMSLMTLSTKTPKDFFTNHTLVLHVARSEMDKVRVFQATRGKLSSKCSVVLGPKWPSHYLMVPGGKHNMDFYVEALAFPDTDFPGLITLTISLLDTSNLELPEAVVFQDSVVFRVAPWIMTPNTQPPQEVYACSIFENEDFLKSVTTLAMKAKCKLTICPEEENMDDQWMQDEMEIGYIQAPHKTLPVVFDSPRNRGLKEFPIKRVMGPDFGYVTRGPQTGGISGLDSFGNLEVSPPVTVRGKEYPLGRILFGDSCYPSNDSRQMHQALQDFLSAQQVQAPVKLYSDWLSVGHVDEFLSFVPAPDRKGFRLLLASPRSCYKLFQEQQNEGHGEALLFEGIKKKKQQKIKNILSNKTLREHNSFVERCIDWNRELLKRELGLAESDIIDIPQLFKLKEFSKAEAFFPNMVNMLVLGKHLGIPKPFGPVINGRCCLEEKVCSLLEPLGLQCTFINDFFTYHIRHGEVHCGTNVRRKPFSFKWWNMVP
Description: (§1) Compounds of the present invention were assayed as inhibitors of PAD4 using the assay protocol described below.
(§2) Compound stock solutions were stored at RT. […] Final assay conditions were as follows:
(§3) Total incubation time: 65 mins at 37° C.
(§4) Stop solution: 40 μl 5% TCA in ACN
(§5) The compound numbers correspond to the compound numbers in Table 1. […] The term pIC50=−log(IC50). […] “NA” stands for “not assayed.”

mPAD4 = mPAD4 (Mus musculus, UniProt Q9Z183); assay: mPAD4 RFMS PAD4 inhibition assay; assay type: biochemical; settings: mPAD4, RFMS readout;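 as to mPAD4 RFMS pIC50: grade E means pIC50 at most 4 and F means pIC50 4.0 to 5.0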
Sequence of mPAD4 (Q9Z183 whole entry): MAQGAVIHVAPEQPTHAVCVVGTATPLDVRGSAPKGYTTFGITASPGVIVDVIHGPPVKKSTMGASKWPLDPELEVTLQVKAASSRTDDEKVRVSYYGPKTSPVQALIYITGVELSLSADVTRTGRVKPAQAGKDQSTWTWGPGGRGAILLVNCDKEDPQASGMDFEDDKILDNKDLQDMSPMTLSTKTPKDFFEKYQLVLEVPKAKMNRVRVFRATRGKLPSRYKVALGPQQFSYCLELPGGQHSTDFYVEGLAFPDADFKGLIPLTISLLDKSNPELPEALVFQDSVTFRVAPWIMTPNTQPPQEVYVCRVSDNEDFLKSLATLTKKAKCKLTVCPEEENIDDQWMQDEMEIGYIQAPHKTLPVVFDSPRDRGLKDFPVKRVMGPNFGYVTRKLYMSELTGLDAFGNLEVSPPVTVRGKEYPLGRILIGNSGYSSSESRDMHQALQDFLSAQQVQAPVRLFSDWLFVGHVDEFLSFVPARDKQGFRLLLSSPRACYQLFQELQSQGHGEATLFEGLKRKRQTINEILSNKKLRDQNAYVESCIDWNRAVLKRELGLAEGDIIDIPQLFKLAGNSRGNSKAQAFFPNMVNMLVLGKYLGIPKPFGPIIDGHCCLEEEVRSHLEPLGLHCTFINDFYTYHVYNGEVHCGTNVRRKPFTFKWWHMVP
Description: as §1, §2, §3, §4, §5

[1] = pIC50=−log(IC50), read-out: hPAD4 RFMS pIC50 (converted)
[2] = pIC50=−log(IC50), read-out: mPAD4 RFMS pIC50 (converted)

Structure (SMILES) | IC50 (hPAD4; [1]) [µM] | IC50 (hPAD4; read-out: hPAD4 RFMS IC50) [µM] | IC50 (mPAD4; [2]) [µM] | IC50 (mPAD4; read-out: mPAD4 RFMS IC50) [µM]
COc1cc(C(=O)N2CC3CCC2[C@@H]3N)cc2nc(-c3cc4cccnc4n3CC3CC3)n(C)c12 (some centres unmarked) [Compound I-30] | 10 to 100 | > 10 | 10 to 100 | > 10
COc1cc(C(=O)N2CC3CCC2[C@H]3N)cc2nc(-c3cc4cccnc4n3CC3CC3)n(C)c12 (some centres unmarked) [Compound I-31] | < 1 | < 1 | < 1 | < 1
COc1cc(C(=O)N2CC3(CNCCO3)C2)cc2nc(-c3cc4cccnc4n3CC3CC3)n(C)c12 [Compound I-32] | > 100 | > 10 | 10 to 100 | > 10
COc1ccc2cc(-c3nc4cc(C(=O)N5CCC[C@@H](N)C5)cc(OC)c4n3C)n(CC3CC3)c2n1 [Compound I-33, (3R)-1-{2-[1-(cyclopropylmethyl)-6-methoxy-1H-pyrrolo[2,3-b]pyridin-2-yl]-7-methoxy-1-methyl-1H-1,3-benzodiazole-5-carbonyl}piperidin-3-amine] | < 1 | < 1 | < 1 | < 1
COc1cc(C(=O)N2C[C@@H](N)CC[C@H]2C)cc2nc(-c3cc4cccnc4n3CC3CC3)n(C)c12 [Compound I-36] | < 1 | < 1 | < 1 | < 1
Cn1c(-c2cc3cccnc3n2CC2CC2)nc2cc(C(=O)N3CCCC4NCCC43)ccc21 (centres unmarked) [Compound I-52] | 10 to 100 | > 10 | 10 to 100 | > 10
Cn1c(-c2cc3cccnc3n2CC2CC2)nc2cc(C(=O)N3CC[C@H](F)[C@@H](N)C3)ccc21 [Compound I-54] | 1 to 10 | 5 to 10 | 10 to 100 | > 10
Cn1c(-c2cc3cccnc3n2CC2CC2)nc2cc(C(=O)N3CC[C@@H](F)[C@H](N)C3)ccc21 [Compound I-55] | 10 to 100 | > 10 | 10 to 100 | > 10
Cn1c(-c2cc3cccnc3n2CC2CC2)nc2cc(C(=O)N3CCC[C@@H](N)C3)cc(OCC(F)(F)F)c21 [Compound I-59] | 1 to 10 | 1 to 5 | < 1 | < 1
Cn1c(-c2cc3cccnc3n2CC2CC2)nc2cc(C(=O)N3C[C@@H](N)C[C@H](F)C3)ccc21 [Compound I-66] | 1 to 10 | < 1 | 1 to 10 | 1 to 5
COc1cc2c(cc1C(=O)N1CCC[C@@H](N)C1)nc(-c1cc3cccnc3n1CC1CC1)n2C [Compound I-68, (3R)-1-{2-[1-(cyclopropylmethyl)-1H-pyrrolo[2,3-b]pyridin-2-yl]-6-methoxy-1-methyl-1H-1,3-benzodiazole-5-carbonyl}piperidin-3-amine hydrochloride] | 1 to 10 | 5 to 10 | 10 to 100 | > 10
CC(=O)Nc1ccnc2c1cc(-c1nc3cc(C(=O)N4CCC[C@@H](N)C4)ccc3n1C)n2CC1CC1 [Compound I-69, N-(2-{5-[(3R)-3-Aminopiperidine-1-carbonyl]-1-methyl-1H-1,3-benzodiazol-2-yl}-1-(cyclopropylmethyl)-1H-pyrrolo[2,3-b]pyridin-4-yl)acetamide] | 1 to 10 | < 1 | 10 to 100 | > 10
COc1ccc2cc(-c3nc4cc(C(=O)N5CCC[C@@H](N)C5)ccc4n3C)n(CC3CC3)c2n1 [Compound I-70, (3R)-1-{2-[1-(Cyclopropylmethyl)-6-methoxy-1H-pyrrolo[2,3-b]pyridin-2-yl]-1-methyl-1H-1,3-benzodiazole-5-carbonyl}piperidin-3-amine] | < 1 | < 1 | < 1 | < 1
COc1cc(C(=O)N2CC3CCC2C3N)cc2nc(-c3cc4cccnc4n3CC3CC3)n(C)c12 (centres unmarked) [Compound I-81] | < 1 | < 1 | < 1 | < 1
COc1cc(C(=O)N2CC(O)(C3(N)CCCC3)C2)cc2nc(-c3cc4cccnc4n3CC3CC3)n(C)c12 [Compound I-84] | 10 to 100 | > 10 | 10 to 100 | > 10
CCn1c(-c2cc3ccc(OC)nc3n2CC2CC2)nc2cc(C(=O)N3C[C@@H](N)C[C@H](F)C3)cc(OC)c21 [Compound I-92] | 1 to 10 | 1 to 5 | < 1 | < 1
COc1ccc2cc(-c3nc4cc(C(=O)N5CCC[C@@H](N)C5)cc(OC)c4n3CC(F)F)n(CC3CC3)c2n1 [Compound I-94, (3R)-1-{2-[1-(cyclopropylmethyl)-6-methoxy-1H-pyrrolo[2,3-b]pyridin-2-yl]-1-(2,2-difluoroethyl)-7-methoxy-1H-1,3-benzodiazole-5-carbonyl}piperidin-3-amine] | < 1 | < 1 | < 1 | < 1
COc1cc(C(=O)N2CC3(CCOC[C@@H]3N)C2)cc2nc(-c3cc4cccnc4n3CC3CC3)n(C)c12 [Compound I-95] | 10 to 100 | > 10 | 10 to 100 | > 10
COc1cc(C(=O)N2CCCC3(CNC3)C2)cc2nc(-c3cc4cccnc4n3CC3CC3)n(C)c12 [Compound I-100] | > 100 | > 10 | > 100 | > 10
COc1cc(C(=O)N2CCC[C@@H](N)C2)cc2nc(-c3cc4cccnc4n3[C@H](C)C3CC3)n(C)c12 [Compound I-101, (3R)-1-(2-{1-[(1R)-1-cyclopropylethyl]-1H-pyrrolo[2,3-b]pyridin-2-yl}-7-methoxy-1-methyl-1H-1,3-benzodiazole-5-carbonyl)piperidin-3-amine] | 1 to 10 | 1 to 5 | 1 to 10 | 1 to 5

More lines, now with the values ahead:

IC50 (hPAD4; [1]) [µM] | IC50 (hPAD4; read-out: hPAD4 RFMS IC50) [µM] | IC50 (mPAD4; [2]) [µM] | IC50 (mPAD4; read-out: mPAD4 RFMS IC50) [µM] | Structure (SMILES)
< 1 | < 1 | < 1 | < 1 | COc1cc(C(=O)N2C[C@@H](N)C[C@H](F)C2)cc2nc(-c3cc4cccnc4n3CC3CC3)n(C)c12 [Compound I-34]
< 1 | < 1 | < 1 | < 1 | COc1cc(C(=O)N2C[C@H](N)C[C@@H](F)C2)cc2nc(-c3cc4cccnc4n3CC3CC3)n(C)c12 [Compound I-35]
1 to 10 | 1 to 5 | 1 to 10 | 1 to 5 | COc1cc(C(=O)N2CCC(F)C(N)C2)cc2nc(-c3cc4cccnc4n3CC3CC3)n(C)c12 (centres unmarked) [Compound I-56]
1 to 10 | 1 to 5 | < 1 | < 1 | CCn1c(-c2cc3cccnc3n2CC2CC2)nc2cc(C(=O)N3C[C@@H](N)C[C@H](F)C3)cc(OC)c21 [Compound I-71]
1 to 10 | 1 to 5 | < 1 | < 1 | Cn1c(-c2cc3cccnc3n2CC2CC2)nc2cc(C(=O)N3C[C@@H](N)C[C@H](F)C3)cc(OCC(F)F)c21 [Compound I-72]
1 to 10 | 1 to 5 | < 1 | < 1 | Cn1c(-c2cc3cccnc3n2CC2CC2)nc2cc(C(=O)N3C[C@@H](N)C[C@H](F)C3)cc(OC(F)F)c21 [Compound I-73]
10 to 100 | > 10 | 10 to 100 | > 10 | COc1cc(C(=O)N2C[C@@H]3[C@@H](N)[C@@H]3C2)cc2nc(-c3cc4cccnc4n3CC3CC3)n(C)c12 [Compound I-76]
10 to 100 | > 10 | 10 to 100 | > 10 | COc1cc(C(=O)N2CC3(CCC3N)C2)cc2nc(-c3cc4cccnc4n3CC3CC3)n(C)c12 (centres unmarked) [Compound I-85]
< 1 | < 1 | < 1 | < 1 | COc1cc(C(=O)N2C[C@H](N)CC[C@@H]2C)cc2nc(-c3cc4cccnc4n3CC3CC3)n(C)c12 [Compound I-87]
10 to 100 | > 10 | 1 to 10 | 5 to 10 | COc1cc(C(=O)N2C[C@H](N)CC[C@H]2C)cc2nc(-c3cc4cccnc4n3CC3CC3)n(C)c12 [Compound I-88]
10 to 100 | > 10 | 10 to 100 | > 10 | COc1cc(C(=O)N2C[C@@H](N)CC[C@@H]2C)cc2nc(-c3cc4cccnc4n3CC3CC3)n(C)c12 [Compound I-89]
1 to 10 | 1 to 5 | 1 to 10 | 1 to 5 | COc1cc(C(=O)N2CC[C@H](F)[C@H](N)C2)cc2nc(-c3cc4cccnc4n3CC3CC3)n(C)c12 [Compound I-90]
< 1 | < 1 | < 1 | < 1 | COc1cc(C(=O)N2CC[C@@H](F)[C@@H](N)C2)cc2nc(-c3cc4cccnc4n3CC3CC3)n(C)c12 [Compound I-91]
1 to 10 | 1 to 5 | 1 to 10 | 1 to 5 | COc1cc(C(=O)N2C[C@@H](N)C[C@H](F)C2)cc2nc(-c3cc4cccnc4n3CC3(C)CC3)n(C)c12 [Compound I-93, (3S,5S)-5-Fluoro-1-(7-methoxy-1-methyl-2-{1-[(1-methylcyclopropyl)methyl]-1H-pyrrolo[2,3-b]pyridin-2-yl}-1H-1,3-benzodiazole-5-carbonyl)piperidin-3-amine]
< 1 | < 1 | < 1 | < 1 | Cn1c(-c2cc3cccnc3n2CC2CC2)nc2cc(C(=O)N3C[C@H](N)C[C@@H](F)C3)cc(OC(F)F)c21 [Compound I-98]
